The record followed here is article PMC11927960, “Multiparameter ranking of carbazoles for anti-trypanosome lead discovery” (Frontiers in drug discovery, 2024).

Values after ≈ are worked out from the molar mass of the structure shown.

The nature of data set [1]: Thermodynamic aqueous solubility (pH 7.4). It is filed as physicochemical. The following applies: aqueous buffer, thermodynamic from solid, phosphate buffer pH 7.4, 25 °C, 20–24 h. The method, then: Thermodynamic aqueous solubility (pH 7.4).
Various amounts of compounds in powdered form were added to phosphate buffer (0.1 M, pH 7.4). Suspensions were kept on a shaker at 25 °C for 20–24 h. After centrifugation, compounds in the supernatant were quantified using LC-MS/MS.

The next data set deals with T. brucei AnTat1.1. Description: Treatment of chronic HAT in a mouse model of disease. It is filed as in vivo, Trypanosoma brucei in Swiss-Webster mice. The following applies: for Mean parasitemia on day 7 post-infection: CBL0174 60 mg/kg, CBL0187 50 mg/kg orally from day 3, vehicle 1.64 × 10^7; for Outcome in chronic HAT mouse model: oral, CBL0137 40 mg/kg days 2-5, 8-11, 14, 15, CBL0174 60 mg/kg and CBL0187 50 mg/kg days 3-9. On the procedure:
Mice were each infected intraperitoneally with Trypanosoma brucei AnTat1.1 (10^4). […] (B) CBL0174 and CBL0187: Groups V, B, and D were given vehicle, CBL0174 (60 mg/kg) and CBL0187 (50 mg/kg), respectively, from day 3 through 9. Different shapes represent individual mice, and horizontal lines in each group denote mean parasitemia determined with a hemocytometer. UND = undetectable; DPI = days post-infection.
Treatment of chronic HAT in a mouse model of disease
Drug efficacy studies in a mouse model of HAT were conducted following recommendations in the “Guide for the Care and Use of Laboratory Animals” of the National Institutes of Health. The protocol was approved by the Institutional Animal Care and Use Committee (IACUC) at the University of Georgia. After the study, the mice were euthanized by CO2 asphyxiation followed by incision to form a bilateral pneumothorax, as approved by the American Veterinary Association.
Female Swiss-Webster mice (20–25 g; 8–10 weeks old) were acclimatized for 1 week before the commencement of the study. […] Parasites in blood collected from a tail venipuncture and diluted 8-fold in RBC lysis buffer (Qiagen) were monitored with a hemocytometer (Neubauer Bright-line). During the study, mice with parasitemia above 10^8 trypanosomes/mL were euthanized for humane reasons. Mice without parasitemia for 90 days were considered cured.

Data set [2] concerns protein synthesis in Trypanosoma brucei. In words: Protein synthesis (HPG incorporation). It is filed as cell-based. The following applies: for Protein Synthesis affected: DTC50 as printed in Table S3; for Effect on protein synthesis: DTC90; for Residual Translation: DTC90 of curaxin 15 min, then 60 min HPG, 1 minus inhibition vs DMSO. The method, then:
FIGURE 3 Effect of curaxins on protein synthesis in Trypanosoma brucei: T. b. brucei (5 × 10^5/mL) was treated with DMSO (D: 0.1%), DTC90 of CBL0174 ([…]), or CBL0187 (600 nM) for 15 min, followed by 60-min incubation with L-Homopropargylglycine (HPG; 4 μM). Incorporated HPG was clicked to azide-Alexa Fluor-488. […] (A) Proteins were transferred to the PVDF membrane and stained for total protein (using LI-COR® Revert™ 700 Total Protein Stain). (B) The membrane was blocked with Intercept® (PBS) blocking buffer and reacted with azide-PEG3-biotin conjugate that was detected with Streptavidin IRDye® 800CW (1: 2500 dilution). (C) Quantitation of HPG signal normalized to total protein loaded per lane. Statistical significance of differences in mean total HPG incorporation (normalized to total protein) was determined with Student’s t-test.
Mid-logarithmic phase trypanosomes were rinsed and resuspended (5×10^5 cells/mL) in methionine-free RPMI supplemented with 10% fetal bovine serum (FBS). Cells were treated with DTC25 or DTC90 concentrations of CBL0174 or CBL0187 for 15 min, followed by 1-h incubation with 4 μM (final concentration) L-Homopropargylglycine (HPG) (Cayman Chemical). Cells were washed with PBS-G (PBS containing 10 mM glucose), pelleted, and resuspended (~5 × 10^6 cells) in 50 μL of permeabilization buffer (50 mM HEPES pH 7.4, 0.025% NP-40) on ice for 30 min. The pellet was mixed with 50 μL “Click-iT reaction” cocktail (20 mM Tris buffer, pH 7.4, 5 mM CuSO4, 300 mM ascorbic acid, 140 mM NaCl, and 17.5 μM azide-PEG-biotin) at room temperature for 1 h. […] HPG-labeled proteins were detected with Streptavidin IRDye® 800CW (1: 2500) and visualized on a Li-Cor® Odyssey CLx near-infrared fluorescence imaging system ([Sanz-Rodriguez et al., 2022]).

A short description of data set [3]: Caco-2 bidirectional permeability assay. The following applies: human. It is filed as in vitro ADME. On the procedure:
Caco-2 bidirectional permeability assay.
Caco-2 bidirectional permeability assay was performed at Absorption Systems (Exton, Pennsylvania). Briefly, monolayers of Caco-2 cells (clone C2BBe1) were grown to confluence on collagen-coated, microporous membranes in 12-well plates. Permeability assay buffer (Hanks’ balanced salt solution containing 10 mM HEPES and 15 mM glucose, pH 7.4) in the receiver chamber contained 1% bovine serum albumin. Compounds dissolved in assay buffer (5 μM) were added either on the apical (A) or the basolateral side (B) and incubated at 37 °C with 5% CO2 in a humidified incubator. Samples were collected from donor and receiver chambers at 120 min. Each determination was performed in duplicate. The flux of lucifer yellow dye was measured post-experimentally for each monolayer to ensure that no monolayers were damaged during the flux period with compounds. Drug amounts were determined by LC-MS/MS. Apparent permeability (Papp) and percent recovery were determined as per [Hubatsch et al. (2007)]. The efflux ratio was calculated as Papp (B-to-A)/Papp (A-to-B).

A short description of data set [4]: Brain accumulation (brain to plasma concentration ratio). The following applies: Swiss Webster, mouse. On the procedure: The plasma concentration and tissue distribution of drugs were determined by Absorption Systems. […] Blood and brain samples were obtained at 1, 2, 4, and 6 h post-dosing, and plasma and brain concentrations of the drug were determined using LC-MS/MS. Stock standards for calibration were prepared in a matrix comprising equal volumes of water and mouse blood containing K2-EDTA as an anticoagulant. Working solutions were prepared in 50:50 acetonitrile–water and added to the matrix to final concentrations of 1,000, 500, 100, 50.0, 10.0, 5.00, 1.00, and 0.500 ng/mL for all compounds. Pharmacokinetic parameters were determined using Phoenix WinNonlin (v8.0) software with sparse sampling. Maximum plasma concentration (Cmax) and the time to reach maximum plasma concentration (tmax) were determined from the four data points. The area under the time concentration curve (AUClast) was calculated using the linear trapezoidal rule with calculation to a 6-h data point. Plasma half-life (t1/2) was calculated from 0.693/slope of the terminal elimination phase. Samples below the limit of detection (0.500 ng/mL) were treated as 0. […]
or CBL0187, respectively. Blood and brain samples were obtained at 1, 2, 4, and 6 h post-dosing, and plasma and brain concentrations of the carbazoles were determined using LC-MS/MS. (A) Brain tissue concentrations of curaxins at different time points (B) Ratios of […]
male and female Swiss-wester mice. […]

The test system of a further data set is T. brucei Lister 427. Description: Effect of 50% serum on curaxin inhibition of trypanosome proliferation. Format: cell-based, Trypanosoma brucei. The following applies: 20, 35 or 50% FBS; Figure S3.
[5] abbreviates: Caco-2, pH 7.4, Caco-2, direction A-to-B.
Setting [6] is: Caco-2, pH 7.4, Caco-2, direction B-to-A.

Method for T. brucei Lister 427: HMI-9 medium ([Hirumi and Hirumi, 1989]) was prepared with different final concentrations of fetal bovine serum (FBS) (20, 35, and 50%). T. brucei Lister 427 was cultured in each medium for at least 7 days. […] EC50 measurements were obtained from three independent experiments in each medium.
containing 20%, 35% or 50% FBS
At 0 h, 4x103 trypanosomes/ml in
media with drug; 37°C, 5% CO2
Cells lysed and SYBR green
Hirumi, 1989) was modified to contain 20, 35, or 50% fetal bovine serum (FBS) (total
concentration). T. b. brucei Lister 427 was first cultured in the medium for 7 days.
(50 µL). Plates were incubated for 48 h at 37 °C and 5% CO2, and the proliferation of
trypanosomes was measured using a SYBR green assay (Faria et al., 2015). Each experiment
was performed thrice, and non-linear regression fits to the data were obtained using GraphPad
Prism which was used to calculate EC50 values. The possible statistical significance of the
FBS-medium (control) was determined by Student’s T-test.

Turning to `CC(=O)c1cc2c3cc(C(C)=O)c(O)cc3n(CCCN(C)C)c2cc1O` [CBL0174, 1-[6-acetyl-9-[3-(dimethylamino)propyl]-2,7-dihydroxy-carbazol-3-yl]ethanone], the solubility in data set [1] turned out to be 773 µM (≈ 285 µg/mL). Further, in the data set with T. brucei AnTat1.1, the “Mean parasitemia on day 7 post-infection” value was 8.22 × 10^7 ± 6.64 × 10^6 trypanosomes/mL and the “Outcome in chronic HAT mouse model” value is “failed to control parasitemia”. Further, in data set [2], the “Protein Synthesis affected” value is “No”, the “Effect on protein synthesis” value is “did not prevent mRNA translation” and the “Residual Translation” value came out at 0.94. Besides, in data set [3] (setting [5]), the Papp at 120 min, 5 μM worked out at 17.8 ± 0.35 ×10⁻⁶ cm/s and the recovery at 120 min, 5 μM was 60%. In data set [3] (setting [6]), this compound showed an apparent permeability coefficient (Papp) at 120 min, 5 μM of 21.9 ± 3.39 ×10⁻⁶ cm/s and a recovery at 120 min, 5 μM of 86%. For the same compound, the Kp in data set [4] (brain, oral) came out at 26.9. Further, in data set [4] (in vivo, po), the Kp was 27.9.
In data set [1], `CC(=O)c1cc2c3cc(C(C)=O)c(O)cc3n(CCNC(C)C)c2cc1O` [CBL0187, 1-[6-acetyl-2,7-dihydroxy-9-[2-(isopropylamino)ethyl]carbazol-3-yl]ethanone] yielded a solubility of 36.3 µM (≈ 13.4 µg/mL). Besides, the “Effect of serum on anti-trypanosome potency” value in the data set on T. brucei Lister 427 is recorded as “decreases”. Besides, in the data set with T. brucei AnTat1.1, the “Mean parasitemia on day 7 post-infection” value was 8.99 × 10^7 ± 2.43 × 10^7 trypanosomes/mL and the “Outcome in chronic HAT mouse model” value was “failed to control parasitemia”. In data set [2], the “Protein Synthesis affected” value is “No”, the “Effect on protein synthesis” value was “inhibited protein synthesis” and the “Residual Translation” value is 0.72. In data set [3] (setting [5]), this compound displayed a Papp at 120 min, 5 μM of 14 ± 1.91 ×10⁻⁶ cm/s and a recovery at 120 min, 5 μM of 47%. In data set [3] (setting [6]), this compound registered a Papp at 120 min, 5 μM of 21.7 ± 3.39 ×10⁻⁶ cm/s and a recovery at 120 min, 5 μM of 64%. For the same compound, in data set [4] (brain, oral), the Kp stood at 15.9.
